What was measured:
2-AP-(CUG)23 RNA = assay: 2-aminopurine fluorescence assay (hairpin opening); format: biochemical; conditions: peptide 100 μM, RNA 1 μM (1:100)
Procedure, shortened: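 2-AP-labelled (CUG)23 RNA (1 μM) was incubated with peptides at 100 μM (RNA:peptide 1:100), or with MblZF at 0.1–5 μM. 2-aminopurine emission at 375 nm is expressed relative to free RNA, with higher fluorescence indicating a shift from hairpin to single-stranded.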

[1] = tested on: 103Y-Gal4/+;UAS-CTG(480)/+ flies; assay: Lethality phenotype in pupae caused by expression of 480 CTG under 103Y-Gal4 (females born); format: in vivo, Drosophila; conditions: administered to larvae in the food; compared with p10
Protocol: The 120 vials that make up the chemical library were individually assayed on the lethality phenotype in pupae caused by the expression of 480 CTG under the control of 103Y-Gal4 at a concentration of 80 μM. […] Thus, for positions O1, O2, O3, O4, O5 and O6 of the hexapeptide, a total of six, three, six, four, two and seven active amino acids were obtained, respectively (FIG. 2A). In order to perform the deconvolution, 10 of these 28 amino acids were selected, on the basis of their degree of activity in the biological assay (FIG. 2A). Finally, of the possible combinations, 16 sequences were selected to perform the synthesis of the defined hexapeptides (FIG. 2B). The selection of these 16 peptides was based on redundancy criteria between the physical and chemical properties of active amino acids in similar positions.
At 250 μM, the activity of the peptide decreased, possibly due to a toxic effect of the peptide at higher concentrations.
In order to determine the contribution of each of the p10 residues to their activity on CTG(480), an alanine scanning experiment was performed. These experiments are based on substituting every amino acid of the peptide with alanine and keeping the rest. Alanine is a small amino acid and, in general, not very active; this is why it is used for this type of studies. Since each alanine substitution examines the contribution of an individual amino acid, this experiment makes it possible, on the one hand, to evaluate whether p10 is susceptible to optimisation (in the event that a substitution increases the efficacy of the molecule), or to determine which amino acids are important for its function (in the event that a substitution decreases the activity thereof). The sequence of p10 allows for 5 substitutions; for this reason, 5 new hexapeptides were synthesised which were assayed in relation to the lethality phenotype in 103Y-Gal4; UAS-CTG(480)/+ flies and commercial food.

FAM-(CUG)23 RNA = assay: Fluorescence gel retardation assay with FAM-(CUG)23; format: binding; conditions: peptide 2.5 mM, RNA 60 nM
Source text: The changes on the RNA caused by p10 in the FP assay are small, probably due to the low molecular weight of the molecule (less than 900 Da). For this reason, it was decided to supplement the study with gel retardation experiments. These assays are based on the differences in electrophoretic mobility between stable protein-nucleic acid complexes and their components separately. Since the FAM-(CUG)23 RNA was available, it was decided to prepare a fluorescence gel retardation assay. After determining the optimal quantity of RNA for detection (60 nM; FIG. 21A), the binding between the latter and MblZF was studied. Said binding caused both a decrease in the intensity of the band corresponding to the free RNA in the gel and the appearance of a signal in the interior of the gel wells (bound RNA).
In order to determine whether p10 could bind to CUG RNA molecules, it was decided to perform a similar gel retardation experiment between the peptide and FAM-(CUG)23. p10 bound to the RNA, with part of the complex being retained in the well, as described for MblZF. […] This affinity decreased upon decreasing the size of the repeats (FAM-(CUG)4, FIG. 24C). […] This could be due either to a synergic effect between the protein and the peptide or to an additive effect if both should bind to different RNA sites.
In order to study the specificity of the binding observed between p10 and the CUG repeats, two experiments were performed. In the first place, the five hexapeptides generated during the alanine scanning were assayed. […] In the second place, we studied the effect of p10 on other RNA and DNA sequences, both double-stranded and single-stranded, fluorescently labelled with carboxyfluorescein (FAM) (FIG. 25C).

[2] = tested on: AAG, CGG, CCUG and CAG repeats; assay: Tryptophan extinction assay with repeats different from CUG; format: binding; conditions: RNA probe 5, 7.5, 10 μM (ppyawa: 10 μM)
Protocol: This figure illustrates an experiment which tested p10 and its capacity to bind to repeats different from CUG repeats, but which are also involved in diseases where the toxicity of RNAs with repeat expansions has been described. The tryptophan extinction assay was used, using (1) p10+AAG, CGG, CCUG and CAG at different RNA concentrations (5 μM, 7.5 μM and 10 μM).
On the other hand, as represented in FIG. 30, the peptides of the invention (particularly p10) have different binding affinities to hairpin loops formed by repeats other than CUG repeats, such as, for example AAG, CGG, CCUG and CAG. In this example, we tested p10 and its capacity to bind to repeats different from CUG repeats, but which are also involved in diseases where the toxicity of RNAs with long repeats has been described. […] Three assay points were used (3 different probe concentrations), with two measurements in each. The results were normalised to the signal offered by p10 alone. […] A single assay point is shown (probe at 10 μM). The results are shown non-normalised in order to be able to include the initial value of the peptides tested.

CUG60 RNA = assay: Circular dichroism of CUG60 RNA; format: binding; conditions: RNA 1 μM, p10 0.1-20 μM, MblZF 1 and 1.5 μM, ppyawa 0.5 and 1 μM, payawe 1 μM
Protocol: However, this effect was not reverted when the RNA was incubated jointly with MblZF and p10, regardless of the order of addition (C).
In order to study possible changes in the secondary structure of RNA induced by p10, in the first place we performed a circular dichroism (CD) experiment, using an RNA with unlabelled CUG repeats (CUG60). The circular dichroism of nucleic acids is caused by the stacking of the bases that make up the sequence thereof. Consequently, when a molecule binds to RNA, affecting the structure thereof, a change is detected in its CD spectrum. […] When we incubated the RNA with increasing concentrations of the peptide of SEQ ID NO: 10 (0.1 μM, 0.5 μM, 1 μM, 10 μM and 20 μM), a similar effect was observed (FIG. 27B). During the readings, the RNA was kept in the cuvette inside the dichrograph at 10° C. Throughout the 3 hours of each experiment, it was possible for the RNA to have been degraded; this would explain the decrease in the intensity of the signal observed. In order to rule out this possibility, the CD spectrum of CUG60 RNA was measured at times 0 and 3 h, having kept the CUG60 RNA at 10° C. at all times.

ppyawa
increase in the fluorescence emission of 2-AP-(CUG)23 (2-AP-(CUG)23 RNA): None of these peptides caused changes
activity on lethality phenotype (number of females), alanine scanning [1]: loss of activity
significant binding to FAM-(CUG)23 RNA (FAM-(CUG)23 RNA): None
change of tryptophan fluorescence intensity in the presence of repeats [2]: increase in intensity
change of circular dichroism spectrum of CUG60 (CUG60 RNA): did not occur
change of circular dichroism spectrum of CUG60 (CUG60 RNA; listed as p29.1): did not change the RNA spectrum

Source: patent publication US20130143825A1, “COMPOUNDS FOR USE IN THE TREATMENT OF DISEASES BASED ON THE EXPRESSION OF TOXIC TRANSCRIPTS” (UNIVERSITAT DE VALENCIA, priority 2010, published 2013)
